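The compound was tested at five concentrations on cells cultured in 96-well plates, with a 48-hour exposure period. Here, GI50 denotes the concentration required for 50% inhibition of growth.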 Activity calls are given as the source filed them. No stated cut-off is given here; in the data, active = GI50 up to about 1.1 µM and inactive = higher.
What was measured:
Assay in all cases: NCI-60 cell line screen, 48 h
786-0 = tested on: 786-0
A498 = tested on: A498
A549 = tested on: A549
ACHN = tested on: ACHN
BT-549 = tested on: BT-549
CAKI-1 = tested on: CAKI-1
CCRF-CEM = tested on: CCRF-CEM
COLO 205 = tested on: COLO 205
DU-145 = tested on: DU-145
EKVX = tested on: EKVX
HCC 2998 = tested on: HCC 2998
HCT-116 = tested on: HCT-116
HCT-15 = tested on: HCT-15
HL-60 = tested on: HL-60
HOP-62 = tested on: HOP-62
HT-29 = tested on: HT-29
Hs-578T = tested on: Hs-578T
IGROV-1 = tested on: IGROV-1
K562 = tested on: K562
KM12 = tested on: KM12
LOX IMVI = tested on: LOX IMVI
M14 = tested on: M14
MCF7 = tested on: MCF7
MDA-MB-435 = tested on: MDA-MB-435
MDA-N = tested on: MDA-N
MOLT-4 = tested on: MOLT-4
Malme-3M = tested on: Malme-3M
NCI-H226 = tested on: NCI-H226
NCI-H23 = tested on: NCI-H23
NCI-H460 = tested on: NCI-H460
NCI-H522 = tested on: NCI-H522
NCI/ADR-RES = tested on: NCI/ADR-RES
OVCAR-3 = tested on: OVCAR-3
OVCAR-4 = tested on: OVCAR-4
OVCAR-5 = tested on: OVCAR-5
OVCAR-8 = tested on: OVCAR-8
PC-3 = tested on: PC-3
RPMI-8226 = tested on: RPMI-8226
RXF 393 = tested on: RXF 393
SF-268 = tested on: SF-268
SF-295 = tested on: SF-295
SF-539 = tested on: SF-539
SK-MEL-28 = tested on: SK-MEL-28
SK-MEL-2 = tested on: SK-MEL-2
SK-MEL-5 = tested on: SK-MEL-5
SN12C = tested on: SN12C
SNB-19 = tested on: SNB-19
SNB-75 = tested on: SNB-75
SR = tested on: SR
SW-620 = tested on: SW-620
T47D = tested on: T47D
TK-10 = tested on: TK-10
U-251 = tested on: U-251
UACC-257 = tested on: UACC-257
UACC-62 = tested on: UACC-62
UO-31 = tested on: UO-31
MDA-MB-231 = tested on: MDA-MB-231
HOP-92 = tested on: HOP-92
SK-OV-3 = tested on: SK-OV-3

O=c1[nH]nc(Cc2ccc([N+](=O)[O-])cc2)[nH]1
GI50 (786-0): > 100 µM (inactive)
GI50 (A498): > 100 µM (inactive)
GI50 (A549): > 100 µM (inactive)
GI50 (ACHN): > 100 µM (inactive)
GI50 (BT-549): > 100 µM (inactive)
GI50 (CAKI-1): > 100 µM (inactive)
GI50 (CCRF-CEM): > 100 µM (inactive)
GI50 (COLO 205): > 100 µM (inactive)
GI50 (DU-145): > 100 µM (inactive)
GI50 (EKVX): 54.6 µM (inactive)
GI50 (HCC 2998): > 100 µM (inactive)
GI50 (HCT-116): > 100 µM (inactive)
GI50 (HCT-15): > 100 µM
GI50 (HL-60): > 100 µM (inactive)
GI50 (HOP-62): > 100 µM (inactive)
GI50 (HT-29): > 100 µM (inactive)
GI50 (Hs-578T): 75 µM (inactive)
GI50 (IGROV-1): > 100 µM (inactive)
GI50 (K562): > 100 µM (inactive)
GI50 (KM12): > 100 µM (inactive)
GI50 (LOX IMVI): > 100 µM (inactive)
GI50 (M14): > 100 µM (inactive)
GI50 (MCF7): > 100 µM (inactive)
GI50 (MDA-MB-435): > 100 µM (inactive)
GI50 (MDA-N): > 100 µM (inactive)
GI50 (MOLT-4): > 100 µM (inactive)
GI50 (Malme-3M): > 100 µM (inactive)
GI50 (NCI-H226): > 100 µM (inactive)
GI50 (NCI-H23): > 100 µM (inactive)
GI50 (NCI-H460): > 100 µM (inactive)
GI50 (NCI-H522): > 100 µM (inactive)
GI50 (NCI/ADR-RES): > 100 µM (inactive)
GI50 (OVCAR-3): > 100 µM (inactive)
GI50 (OVCAR-4): > 100 µM (inactive)
GI50 (OVCAR-5): > 100 µM (inactive)
GI50 (OVCAR-8): > 100 µM (inactive)
GI50 (PC-3): > 100 µM (inactive)
GI50 (RPMI-8226): > 100 µM (inactive)
GI50 (RXF 393): > 100 µM (inactive)
GI50 (SF-268): > 100 µM (inactive)
GI50 (SF-295): > 100 µM (inactive)
GI50 (SF-539): > 100 µM (inactive)
GI50 (SK-MEL-28): > 100 µM (inactive)
GI50 (SK-MEL-2): > 100 µM (inactive)
GI50 (SK-MEL-5): > 100 µM (inactive)
GI50 (SN12C): > 100 µM (inactive)
GI50 (SNB-19): > 100 µM (inactive)
GI50 (SNB-75): > 100 µM (inactive)
GI50 (SR): > 100 µM (inactive)
GI50 (SW-620): > 100 µM (inactive)
GI50 (T47D): > 100 µM (inactive)
GI50 (TK-10): > 100 µM (inactive)
GI50 (U-251): > 100 µM (inactive)
GI50 (UACC-257): > 100 µM (inactive)
GI50 (UACC-62): > 100 µM (inactive)
GI50 (UO-31): 52.5 µM (inactive)

N=C(N)SCCc1ccccn1
GI50 (BT-549): > 100 µM (inactive)
GI50 (CAKI-1): > 100 µM (inactive)
GI50 (DU-145): > 100 µM (inactive)
GI50 (EKVX): 89.3 µM (inactive)
GI50 (HCC 2998): > 100 µM (inactive)
GI50 (HT-29): > 100 µM (inactive)
GI50 (Hs-578T): > 100 µM (inactive)
GI50 (K562): > 100 µM (inactive)
GI50 (MCF7): > 100 µM (inactive)
GI50 (MDA-MB-231): 55.2 µM (inactive)
GI50 (MDA-MB-435): > 100 µM (inactive)
GI50 (MDA-N): > 100 µM (inactive)
GI50 (NCI/ADR-RES): > 100 µM (inactive)
GI50 (PC-3): > 100 µM (inactive)
GI50 (SF-295): > 100 µM (inactive)
GI50 (SR): > 100 µM (inactive)
GI50 (TK-10): > 100 µM (inactive)
GI50 (U-251): 51.2 µM (inactive)
GI50 (UACC-257): > 100 µM (inactive)

COc1ccc(/N=C(\C)c2ccncc2)cc1
GI50 (786-0): > 100 µM (inactive)
GI50 (A498): 40.9 µM (inactive)
GI50 (A549): 47.2 µM (inactive)
GI50 (ACHN): 34.7 µM (inactive)
GI50 (BT-549): 64 µM (inactive)
GI50 (CAKI-1): > 100 µM (inactive)
GI50 (CCRF-CEM): > 100 µM (inactive)
GI50 (COLO 205): > 100 µM (inactive)
GI50 (DU-145): 83 µM (inactive)
GI50 (EKVX): > 100 µM (inactive)
GI50 (HCC 2998): > 100 µM (inactive)
GI50 (HCT-116): > 100 µM (inactive)
GI50 (HCT-15): 32.1 µM
GI50 (HOP-62): > 100 µM (inactive)
GI50 (HOP-92): > 100 µM (inactive)
GI50 (HT-29): > 100 µM (inactive)
GI50 (Hs-578T): > 100 µM (inactive)
GI50 (IGROV-1): > 100 µM (inactive)
GI50 (K562): > 100 µM (inactive)
GI50 (KM12): > 100 µM (inactive)
GI50 (LOX IMVI): > 100 µM (inactive)
GI50 (M14): > 100 µM (inactive)
GI50 (MCF7): 66.7 µM (inactive)
GI50 (MDA-MB-231): > 100 µM (inactive)
GI50 (MDA-MB-435): 26.9 µM (inactive)
GI50 (MDA-N): > 100 µM (inactive)
GI50 (MOLT-4): > 100 µM (inactive)
GI50 (Malme-3M): > 100 µM (inactive)
GI50 (NCI-H226): 93.3 µM (inactive)
GI50 (NCI-H23): 89.3 µM (inactive)
GI50 (NCI-H460): > 100 µM (inactive)
GI50 (NCI-H522): > 100 µM (inactive)
GI50 (NCI/ADR-RES): > 100 µM (inactive)
GI50 (OVCAR-3): > 100 µM (inactive)
GI50 (OVCAR-4): > 100 µM (inactive)
GI50 (OVCAR-5): 72.8 µM (inactive)
GI50 (OVCAR-8): > 100 µM (inactive)
GI50 (PC-3): > 100 µM (inactive)
GI50 (RPMI-8226): 16.7 µM (inactive)
GI50 (RXF 393): > 100 µM (inactive)
GI50 (SF-268): 50.6 µM (inactive)
GI50 (SF-295): > 100 µM (inactive)
GI50 (SF-539): 21 µM (inactive)
GI50 (SK-MEL-28): > 100 µM (inactive)
GI50 (SK-MEL-2): > 100 µM (inactive)
GI50 (SK-MEL-5): 94.8 µM (inactive)
GI50 (SK-OV-3): > 100 µM (inactive)
GI50 (SN12C): > 100 µM (inactive)
GI50 (SNB-19): > 100 µM (inactive)
GI50 (SNB-75): > 100 µM (inactive)
GI50 (SW-620): 86.5 µM (inactive)
GI50 (T47D): > 100 µM (inactive)
GI50 (TK-10): > 100 µM (inactive)
GI50 (U-251): > 100 µM (inactive)
GI50 (UACC-257): > 100 µM (inactive)
GI50 (UACC-62): > 100 µM (inactive)
GI50 (UO-31): 24.2 µM (inactive)
